Data reported in US20210251220A1, “LICE ELIMINATOR” (priority 2018, published 2021).

Experiment: Contact angle of spreading component
Type: physicochemical
Conditions: 10% by weight aqueous solution, droplet on stainless steel plate, θ/2 method (JIS R3257)
Description: It is preferred that the contact angle of the spreading component to be mixed in the lice eliminator according to the present invention is 1 to 60°. When the contact angle on a solid surface of the spreading component to be mixed in the lice eliminator according to the present invention is in this range, the lice eliminator spreads wet and is easily taken onto a louse, for example, easily adheres to and spreads out over the outer skin of a louse, without being repelled by the outer skin when brought into contact with the louse, and the effect of exterminating a louse by blocking the louse from the outside, for example, by sealing the spiracle of the louse becomes higher. It is preferred that the contact angle of the spreading component contained in the lice eliminator of the present invention is measured by a θ/2 method or the like in accordance with the method described in JIS R3257 (1999) or the like. When the spreading component is soluble in water and is solid, the contact angle as an aqueous solution, for example, at 10% by weight or the like is measured. When the spreading component is not soluble in water and is in a liquid state, the contact angle is measured as the stock solution, and when the spreading component is soluble in water and is in a liquid state, the contact angle is measured as the stock solution or an aqueous solution at 10% by weight or the like.
A 10% by weight aqueous solution of each spreading component was prepared, and the contact angle when a droplet of the aqueous solution was put on a stainless steel plate was measured with a contact angle meter (CAX-150 manufactured by Kyowa Interface Science Co., Ltd.) by a θ/2 method in accordance with the method described in JIS R3257 (1999).

Compound | Contact angle (°) of agent
CCCCCCCCCCCCc1ccc(S(=O)(=O)[O-])cc1.[Na+] [compound 1, Sodium dodecylbenzenesulfonate] | 25 °
CCCCCCCCCCCCOS(=O)(=O)[O-].[Na+] [compound 3, Sodium lauryl sulfate] | 38 °
CCCCCCCCCCCC[N+](C)(C)C.[Cl-] [compound 4, Lauryl trimethyl ammonium chloride] | 36 °
Monolauric acid polyethylene glycol [compound 10] | 39 °
Polyethylene glycol monolaurate [compound 9] | 34 °
Polyoxyethylene lauryl ether [compound 8] | 38 °
